In ChEMBL document CHEMBL4619730, “Hypolipidemic constituents from the aerial portion of Sibiraea angustata” (Bioorg Med Chem Lett, 2020):
The source made the active and inactive calls. The calls are words filed in the database; no cut-off is given here.

Experiments:
Format in all cases: functional, cell-based
HepG2 [1] = experiment: Hypolipidemic activity in human HepG2 cells assessed as inhibition of oleic acid-induced lipid accumulation at 10 uM
HepG2 [2] = experiment: Downregulation of FASN mRNA expression in human HepG2 cells at 10 uM by qRT-PCR analysis
HepG2 [3] = experiment: Downregulation of SREBF1 mRNA expression in human HepG2 cells at 10 uM by qRT-PCR analysis
HepG2 [4] = experiment: Downregulation of HMGCR mRNA expression in human HepG2 cells at 10 uM by qRT-PCR analysis
HepG2 [5] = experiment: Hypolipidemic activity against oleic acid-induced lipid accumulation in human HepG2 cell model assessed as decrease in triglycerides (16:0/14:0/20:5) level at 10 uM by UPLC-QTOF-MS analysis
HepG2 [6] = experiment: Hypolipidemic activity against oleic acid-induced lipid accumulation in human HepG2 cell model assessed as decrease in diglycerides (20:5/16:0/0:0) level at 10 uM by UPLC-QTOF-MS analysis
HepG2 [7] = experiment: Hypolipidemic activity against oleic acid-induced lipid accumulation in human HepG2 cell model assessed as decrease in phosphatidylcholine (O-16:0/20:5) level at 10 uM by UPLC-QTOF-MS analysis
HepG2 [8] = experiment: Hypolipidemic activity against oleic acid-induced lipid accumulation in human HepG2 cell model assessed as decrease in 1acyl-sn-glycero-3phosphocholines (18:2/0:0) level at 10 uM by UPLC-QTOF-MS analysis
HepG2 [9] = experiment: Hypolipidemic activity against oleic acid-induced lipid accumulation in human HepG2 cell model assessed as decrease in triglycerides (16:0/16:0/18:3) level at 10 uM by UPLC-QTOF-MS analysis
HepG2 [10] = experiment: Hypolipidemic activity against oleic acid-induced lipid accumulation in human HepG2 cell model assessed as decrease in triglycerides (18:1/16:0/20:5) level at 10 uM by UPLC-QTOF-MS analysis
HepG2 [11] = experiment: Hypolipidemic activity against oleic acid-induced lipid accumulation in human HepG2 cell model assessed as decrease in triglycerides (18:1/18:3/18:1) level at 10 uM by UPLC-QTOF-MS analysis
HepG2 [12] = experiment: Hypolipidemic activity against oleic acid-induced lipid accumulation in human HepG2 cell model assessed as decrease in diglycerides (18:2/20:5/0:0) level at 10 uM by UPLC-QTOF-MS analysis
HepG2 [13] = experiment: Hypolipidemic activity against oleic acid-induced lipid accumulation in human HepG2 cell model assessed as decrease in diglycerides (20:4/18:2/0:0) level at 10 uM by UPLC-QTOF-MS analysis
HepG2 [14] = experiment: Hypolipidemic activity against oleic acid-induced lipid accumulation in human HepG2 cell model assessed as decrease in diglycerides (20:1/0:0/20:4) level at 10 uM by UPLC-QTOF-MS analysis
HepG2 [15] = experiment: Hypolipidemic activity against oleic acid-induced lipid accumulation in human HepG2 cell model assessed as decrease in phosphatidylcholine (18:2/18:2) level at 10 uM by UPLC-QTOF-MS analysis

Which Activity (HepG2 [1]) does the source give for `COC(=O)/C=C/c1ccc(O)c(OC)c1` here?
The Activity was “inactive”.

`CC(C)=C[C@H]1C/C(=C\CO[C@H]2O[C@@H](COC(=O)/C=C/c3ccc(O)cc3)[C@H](O)[C@@H](O)[C@@H]2O)C(=O)O1` was tested. Which Activity (HepG2 [1]) did it give?
The Activity was “inactive”.

Which Activity (HepG2 [1]) does the source give for `CC(C)=C[C@@H]1C/C(=C\CO[C@H]2O[C@@H](COC(=O)/C=C/c3ccc(O)cc3)[C@H](O)[C@@H](O)[C@@H]2O)C(=O)O1` here?
The Activity was “Active”.

Which Activity (HepG2 [1]) does the source give for `CC(C)=CC(=O)/C=C(/C)CCO[C@H]1O[C@@H](COC(=O)/C=C/c2ccc(O)c(O)c2)[C@H](O)[C@@H](O)[C@@H]1O` here?
Its Activity is “Active”.

For `COc1ccc(/C=C/C(=O)OC[C@@H]2O[C@H](OC/C=C3\C[C@@H](C=C(C)C)OC3=O)[C@@H](O)[C@H](O)[C@H]2O)cc1O`, which Activity (HepG2 [1]) is on record?
Its Activity is “Active”.

And the inhibition (HepG2 [2])?
Its inhibition is “Active”.

What about the inhibition (HepG2 [3]) of the same molecule?
Its inhibition is “inactive”.

What about the inhibition (HepG2 [4]) of the same molecule?
Its inhibition is “inactive”.

What about the Activity (HepG2 [5]) of the same molecule?
The Activity was “Active”.

And the Activity (HepG2 [6])?
The Activity was “Active”.

What about the Activity (HepG2 [7]) of the same molecule?
The Activity was “Active”.

What about the Activity (HepG2 [8]) of the same molecule?
The Activity was “Active”.

What about the Activity (HepG2 [9]) of the same molecule?
The Activity was “Active”.

What about the Activity (HepG2 [10]) of the same molecule?
The Activity was “Active”.

What about the Activity (HepG2 [11]) of the same molecule?
Its Activity is “Active”.

And the Activity (HepG2 [12])?
The Activity was “Active”.

What about the Activity (HepG2 [13]) of the same molecule?
Its Activity is “Active”.

What about the Activity (HepG2 [14]) of the same molecule?
Its Activity is “Active”.

And the Activity (HepG2 [15])?
The Activity was “Active”.

`COc1ccc(/C=C/C(=O)OC[C@@H]2O[C@H](OC/C=C3\C[C@H](C=C(C)C)OC3=O)[C@@H](O)[C@H](O)[C@H]2O)cc1O` was tested. Which Activity (HepG2 [1]) did it give?
The Activity was “Active”.

`CC(C)=CC(=O)/C=C(\C)CCO[C@H]1O[C@@H](COC(=O)/C=C/c2ccc(O)c(O)c2)[C@H](O)[C@@H](O)[C@@H]1O` was tested. Which Activity (HepG2 [1]) did it give?
Its Activity is “Active”.
